Values quoted from earlier work in patent US20110311589A1 (priority 2008, published 2011).

Tested on: helminthiasis
Settings: in vivo

In the case of `c1ccc([C@H]2CN3CCSC3=N2)cc1` [Levamisole], the “Dosage level at which particularly effective as anthelmintic” value is listed as “approximately 7.5 mg per kg of animal body weight”.
